This passage reports IC50 and GI50 results from PMC6044785 (ACS Omega, 2017).

The structures appear in SMILES notation. Like-named read-outs stand apart in the source and are kept apart here. Square brackets hold non-standard residues; d marks the D form. Peptide text beside a SMILES is read from it. Gly(But-3-enyl) = C=CCC[C@H](N)C(=O)O; Aib = CC(C)(N)C(=O)O Some results are limits rather than exact numbers.

Assay [1] concerns the target HDAC1 (Homo sapiens, UniProt Q13547). The assay is described as follows: HDAC1 enzymatic inhibition assay. Type of assay: biochemical.
For assay [2], the target named is T1, HDAC6 (Homo sapiens, UniProt Q9UBN7).
T1 sequence (Q9UBN7 1-1215): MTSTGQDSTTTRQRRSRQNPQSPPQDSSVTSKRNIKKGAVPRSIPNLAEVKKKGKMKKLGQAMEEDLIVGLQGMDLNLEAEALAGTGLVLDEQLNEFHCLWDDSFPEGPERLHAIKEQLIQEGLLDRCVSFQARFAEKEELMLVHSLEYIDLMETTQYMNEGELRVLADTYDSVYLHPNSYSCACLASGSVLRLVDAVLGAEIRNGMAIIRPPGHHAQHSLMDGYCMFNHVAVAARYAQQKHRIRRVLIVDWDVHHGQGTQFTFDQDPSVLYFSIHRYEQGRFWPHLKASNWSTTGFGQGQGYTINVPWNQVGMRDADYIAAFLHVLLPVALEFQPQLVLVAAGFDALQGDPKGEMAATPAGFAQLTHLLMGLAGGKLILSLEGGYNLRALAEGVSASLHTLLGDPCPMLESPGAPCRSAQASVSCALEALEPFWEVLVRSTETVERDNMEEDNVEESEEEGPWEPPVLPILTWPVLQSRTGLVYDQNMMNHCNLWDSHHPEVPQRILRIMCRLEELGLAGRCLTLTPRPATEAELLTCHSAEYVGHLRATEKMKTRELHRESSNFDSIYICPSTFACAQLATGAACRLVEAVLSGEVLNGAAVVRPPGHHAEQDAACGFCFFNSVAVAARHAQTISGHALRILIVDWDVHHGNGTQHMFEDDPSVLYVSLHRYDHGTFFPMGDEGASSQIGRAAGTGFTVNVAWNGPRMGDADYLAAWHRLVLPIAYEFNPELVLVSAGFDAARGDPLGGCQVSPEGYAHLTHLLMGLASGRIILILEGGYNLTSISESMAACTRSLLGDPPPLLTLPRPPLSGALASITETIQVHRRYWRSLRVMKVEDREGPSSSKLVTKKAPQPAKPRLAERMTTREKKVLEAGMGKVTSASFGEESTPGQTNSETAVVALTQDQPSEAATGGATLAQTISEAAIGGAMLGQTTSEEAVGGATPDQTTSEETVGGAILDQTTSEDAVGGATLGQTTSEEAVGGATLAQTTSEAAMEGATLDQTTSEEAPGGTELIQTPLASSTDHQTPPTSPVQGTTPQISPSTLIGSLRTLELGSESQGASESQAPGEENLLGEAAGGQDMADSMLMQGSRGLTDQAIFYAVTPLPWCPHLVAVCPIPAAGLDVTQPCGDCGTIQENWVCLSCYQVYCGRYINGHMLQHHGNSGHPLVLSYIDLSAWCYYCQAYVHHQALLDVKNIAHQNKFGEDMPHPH
The assay is described as follows: HDAC6 enzymatic inhibition assay. It counts as biochemical.

Assay [3] addresses T2, HDAC8 (Homo sapiens, UniProt Q9BY41).
T2 sequence (Q9BY41 1-377): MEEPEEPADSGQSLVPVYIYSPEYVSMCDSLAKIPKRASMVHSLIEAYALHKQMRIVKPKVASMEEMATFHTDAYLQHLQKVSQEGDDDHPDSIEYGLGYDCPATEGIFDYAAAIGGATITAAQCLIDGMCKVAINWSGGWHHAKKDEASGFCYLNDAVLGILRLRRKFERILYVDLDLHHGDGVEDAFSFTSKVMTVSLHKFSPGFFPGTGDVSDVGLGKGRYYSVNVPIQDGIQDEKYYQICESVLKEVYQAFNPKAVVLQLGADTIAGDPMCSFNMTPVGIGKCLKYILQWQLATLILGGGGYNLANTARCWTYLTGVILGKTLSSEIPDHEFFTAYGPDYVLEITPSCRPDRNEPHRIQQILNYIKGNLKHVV
The assay is described as follows: HDAC8 enzymatic inhibition assay. It counts as biochemical.

Assay [4] relates to HeLa nuclear extract. The assay is described as follows: HDAC inhibition assay with HeLa nuclear extract. Type of assay: biochemical, human. The following applies: read-out: IC50 (μM) HeLa nuclear extract; Table 1; mean ± SD of three independent experiments; >100 = not active (inhibition < 50% at 100 μM).
The test system of assay [5] is P. falciparum. The following applies: read-out: GI50 (μM) P. falciparum; Table 3; ref [22]; cited from earlier work.
Assay [6] has as its target HDAC3/NCOR2 (Homo sapiens, UniProt O15379). The assay is described as follows: HDAC3/NCOR2 enzymatic inhibition assay. It counts as biochemical.
Assay [7] concerns T. gondii RH strain. The following applies: read-out: IC50 T. gondii RH strain; ref [22]; cited from earlier work.
The subject of assay [8] is Jurkat. The following applies: read-out: GI50 (μM) Jurkat; Table 3; ref [22]; cited from earlier work.
Assay [9] has as its system K562. The following applies: read-out: GI50 (μM) K562; Table 3; ref [22]; cited from earlier work.
Assay [10] has as its system HeLa. The assay is described as follows: Antiproliferative activity on HeLa cells. The following applies: 72 h, read-out: GI50 (μM) HeLa. Type of assay: cell-based, human.
Assay [11] deals with HDAC4 (Homo sapiens, UniProt P56524). The assay is described as follows: HDAC4 enzymatic inhibition assay. Type of assay: biochemical.
Assay [12] concerns HEK293. The assay is described as follows: Antiproliferative activity on HEK293 cells. The following applies: read-out: GI50 (μM) HEK293. Type of assay: cell-based, human.
In assay [13] the test system is P. falciparum. The assay is described as follows: P. falciparum [3H]-hypoxanthine incorporation assay. The following applies: Plasmodium falciparum, 3D7, read-out: GI50 (μM) P. falciparum. Type of assay: cell-based, Plasmodium falciparum 3D7 strain.
Assay [14] concerns Jurkat. The assay is described as follows: Antiproliferative activity on Jurkat cells. Type of assay: cell-based. The following applies: Homo sapiens, read-out: GI50 (μM) Jurkat.
Assay [15] relates to K562. The assay is described as follows: Antiproliferative activity on K562 cells. It counts as cell-based. The following applies: Homo sapiens, K562, read-out: GI50 (μM) K562.
Assay [16] deals with normal B lymphocytes. The assay is described as follows: Antiproliferative activity on normal B lymphocytes. Type of assay: cell-based. The following applies: Homo sapiens, Lymphocyte, 72 h, read-out: GI50 normal B lymphocytes.

Sequence of HDAC1 (Q13547 whole entry): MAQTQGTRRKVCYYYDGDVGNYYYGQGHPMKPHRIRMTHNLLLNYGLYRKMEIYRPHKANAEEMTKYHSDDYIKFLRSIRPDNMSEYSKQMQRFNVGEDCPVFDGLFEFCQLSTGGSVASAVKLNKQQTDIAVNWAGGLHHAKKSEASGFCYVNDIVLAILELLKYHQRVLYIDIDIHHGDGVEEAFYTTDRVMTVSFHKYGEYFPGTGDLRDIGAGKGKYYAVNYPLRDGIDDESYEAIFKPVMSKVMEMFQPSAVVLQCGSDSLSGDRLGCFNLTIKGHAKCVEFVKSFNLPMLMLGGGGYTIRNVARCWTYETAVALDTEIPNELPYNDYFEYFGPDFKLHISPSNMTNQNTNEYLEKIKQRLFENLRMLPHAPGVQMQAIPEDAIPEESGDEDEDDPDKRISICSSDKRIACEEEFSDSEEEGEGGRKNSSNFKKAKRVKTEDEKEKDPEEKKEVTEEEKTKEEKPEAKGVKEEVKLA
Sequence of HDAC3/NCOR2 (O15379 whole entry): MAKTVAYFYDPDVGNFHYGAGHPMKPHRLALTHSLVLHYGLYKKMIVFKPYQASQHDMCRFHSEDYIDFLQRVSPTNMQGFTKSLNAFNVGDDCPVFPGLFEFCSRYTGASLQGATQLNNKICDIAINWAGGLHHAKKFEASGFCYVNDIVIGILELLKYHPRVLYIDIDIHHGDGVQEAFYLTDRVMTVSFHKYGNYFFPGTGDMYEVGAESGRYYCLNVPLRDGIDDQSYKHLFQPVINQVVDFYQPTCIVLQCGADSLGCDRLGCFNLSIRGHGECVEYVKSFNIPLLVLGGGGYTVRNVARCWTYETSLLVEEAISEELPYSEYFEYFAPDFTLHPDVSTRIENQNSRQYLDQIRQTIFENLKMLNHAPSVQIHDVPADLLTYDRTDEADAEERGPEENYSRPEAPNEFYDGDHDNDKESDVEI
Sequence of HDAC3/NCOR2 (Q9Y618 395-489 partner limits assumed): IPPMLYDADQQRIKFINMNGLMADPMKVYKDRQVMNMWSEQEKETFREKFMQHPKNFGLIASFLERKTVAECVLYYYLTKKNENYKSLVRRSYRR
Sequence of HDAC4 (P56524 whole entry): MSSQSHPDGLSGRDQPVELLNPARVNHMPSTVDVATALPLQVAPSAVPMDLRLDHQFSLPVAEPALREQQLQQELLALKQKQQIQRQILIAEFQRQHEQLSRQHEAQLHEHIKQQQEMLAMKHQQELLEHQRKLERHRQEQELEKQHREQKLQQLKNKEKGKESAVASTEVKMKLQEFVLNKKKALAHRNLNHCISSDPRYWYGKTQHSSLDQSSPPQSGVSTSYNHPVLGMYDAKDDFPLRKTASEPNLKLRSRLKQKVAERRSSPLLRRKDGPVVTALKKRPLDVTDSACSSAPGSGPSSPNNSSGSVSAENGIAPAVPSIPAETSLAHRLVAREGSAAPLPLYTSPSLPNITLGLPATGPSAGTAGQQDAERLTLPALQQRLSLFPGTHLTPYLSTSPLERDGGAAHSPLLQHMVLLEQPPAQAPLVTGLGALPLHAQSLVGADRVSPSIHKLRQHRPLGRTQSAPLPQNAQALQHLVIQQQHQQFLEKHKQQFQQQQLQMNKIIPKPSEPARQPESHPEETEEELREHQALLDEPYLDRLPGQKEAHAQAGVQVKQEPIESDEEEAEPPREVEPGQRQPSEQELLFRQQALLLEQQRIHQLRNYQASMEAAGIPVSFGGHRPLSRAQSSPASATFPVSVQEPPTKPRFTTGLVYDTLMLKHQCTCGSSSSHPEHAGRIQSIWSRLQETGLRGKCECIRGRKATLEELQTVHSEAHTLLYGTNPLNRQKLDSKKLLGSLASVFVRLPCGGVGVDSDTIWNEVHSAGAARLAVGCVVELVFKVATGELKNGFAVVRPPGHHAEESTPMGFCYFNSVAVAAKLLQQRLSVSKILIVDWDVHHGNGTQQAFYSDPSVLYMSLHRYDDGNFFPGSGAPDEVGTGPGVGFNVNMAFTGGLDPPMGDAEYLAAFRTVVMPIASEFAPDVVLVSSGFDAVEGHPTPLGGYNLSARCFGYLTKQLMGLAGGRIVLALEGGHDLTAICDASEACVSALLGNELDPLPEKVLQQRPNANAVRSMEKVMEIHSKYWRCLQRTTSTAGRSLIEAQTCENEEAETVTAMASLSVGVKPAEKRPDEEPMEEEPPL

As to `C[C@@H](O)C(=O)CCCCC[C@@H]1NC(=O)[C@H]2CCCN2C(=O)[C@H](Cc2ccccc2)NC(=O)C(C)(C)NC1=O` [Compound 3], the IC50 in [1] is 0.96 ± 0.6 µM; in [2], more than 300 µM; in [3], 7.02 ± 1.53 µM; in assay [4] it was 0.0081 ± 0.0019 µM; in [6], 330 ± 10 nM; in assay [7] it was 28.6 nM. This compound also displayed an IC50 in assay [11] of more than 100 µM. Besides, the GI50 in assay [5] was 0.0174 ± 0.002 µM; in assay [8], 0.048 ± 0.001 µM; in [9], 0.018 ± 0.002 µM; in assay [10] (Homo sapiens), 0.17 ± 0.01 µM; in assay [12] (Homo sapiens, HEK293, 72 h), 0.04 ± 0.02 µM.
Consider `C[C@@H](O)C(=O)CCCCCC(=O)Nc1ccccc1` [Compound 11a, (R)-8-Hydroxy-7-oxo-N-phenylnonanamide], for which the IC50 was 101 ± 2.9 µM in assay [2] and more than 100 µM in assay [4].
Turning to `C[C@@H](O)C(=O)CCCCCCC(=O)Nc1ccccc1` [Compound 11b, (R)-9-Hydroxy-8-oxo-N-phenyldecanamide], the IC50 in assay [1] was 7.9 ± 0.8 µM; in [2], more than 300 µM; in assay [3], more than 100 µM; in [4] it was 8.9 ± 0.5 µM; in [6] it was 50200 ± 4700 nM; in assay [11], more than 100 µM. Moreover, the GI50 is 37.9 ± 3.8 µM in assay [13]; 92 ± 1 µM in assay [14]; more than 50 µM in assay [10] (Homo sapiens); 35.6 ± 1.6 µM in assay [12] (Homo sapiens, HEK293, 72 h); 62.3 ± 5.8 µM in assay [15].
As for `C[C@@H](O)C(=O)CCCCCCCC(=O)Nc1ccccc1` [Compound 11c, (R)-10-Hydroxy-9-oxo-N-phenylundecanamide], the IC50 is more than 300 µM in assay [2] and 27.3 ± 5.9 µM in assay [4].
`C[C@H](O)C(=O)CCCCCCC(=O)Nc1cccc(-c2cn(-c3ccccc3)nn2)c1` [Compound 11e, (S)-9-Hydroxy-8-oxo-N-(3-(1-phenyl-1H-1,2,3-triazol-4-yl)phenyl)decanamide]: the IC50 in [1] was 5.04 ± 0.07 µM; in [2], more than 300 µM; in assay [3], more than 100 µM; in assay [4], 0.88 ± 0.05 µM; in assay [6], 1970 ± 30 nM; in assay [11], more than 100 µM. The GI50 is 4.85 ± 1.3 µM in assay [13]; 2.84 ± 0.7 µM in [14]; more than 50 µM in assay [16]; 115 ± 25.3 µM in assay [10] (Homo sapiens); 15.9 ± 1.13 µM in assay [12] (Homo sapiens, HEK293, 72 h); 7.12 ± 0.9 µM in assay [15].
For `C[C@H](O)C(=O)CCCCCCC(=O)Nc1ccccc1` [Compound 11f, (S)-9-Hydroxy-8-oxo-N-phenyldecanamide], the IC50 is more than 300 µM in assay [2] and 77.1 ± 6.4 µM in assay [4].
The like results for `CCC(=O)CCCCCCC(=O)Nc1ccccc1` [Compound 11g, 8-Oxo-N-phenyldecanamide] were, in that order, more than 300 µM and more than 100 µM.
For the compound `CC(=O)O[C@H](C)C(=O)CCCCCCC(=O)Nc1ccccc1` [Compound 12b, (R)-3,10-Dioxo-10-(phenylamino)decan-2-yl Acetate], the GI50 was 40.1 ± 4.3 µM in assay [13]; not below 100 µM in assay [14]; more than 50 µM in assay [10] (Homo sapiens); 36.3 ± 1.7 µM in assay [12] (Homo sapiens, HEK293, 72 h); not below 100 µM in assay [15]. In addition, the IC50 in assay [2] is more than 300 µM; in [4], 63.8 ± 5.3 µM.
Turning to `CC(=O)O[C@H](C)C(=O)CCCCC[C@@H]1NC(=O)[C@H]2CCCN2C(=O)[C@H](Cc2ccccc2)NC(=O)C(C)(C)NC1=O` [Compound 13], the IC50 in assay [1] is 0.39 ± 0.02 µM; in assay [2], more than 300 µM; in assay [3] it was 1.87 ± 0.42 µM; in assay [4], 0.11 ± 0.0008 µM; in assay [6], 350 ± 3 nM; in assay [11] it was more than 100 µM. Also, the GI50 was 0.0221 ± 0.001 µM in assay [5]; 0.127 ± 0.011 µM in [8]; 0.061 ± 0.002 µM in assay [9]; 0.119 ± 0.008 µM in assay [10] (Table 3, XTT); 0.006 ± 0.001 µM in assay [12] (Table 3, 72 h, XTT).
For `C=CCC[C@@H]1NC(=O)[C@H]2CCCN2C(=O)[C@H](Cc2ccccc2)NC(=O)C(C)(C)NC1=O` [Compound 14] (cyclo([Aib]F[dP][Gly(But-3-enyl)])), the IC50 in [2] is more than 300 µM.
